According to PMC6151961 (Journal of Enzyme Inhibition and Medicinal Chemistry, 2018):
Read-outs that look alike come from different tables or passages of the source.

Experiments:
CA IX [1] = target: T1, CA IX (Homo sapiens, UniProt Q16790); assay: biochemical
CA IX [2] = target: T1, CA IX; conditions: cited from earlier work
[3] = experimental value from the library Ki (IDs A…, B…), values equal log10 of Ki in nM
[4] = library compounds with IDs A… and B…, from observed Ki (nM)
[5] = experimental value used for the QSPR model, library compounds (IDs A…, B…), equals log10 of Ki in nM
[6] = library compounds (IDs A…, B…), observed Ki towards CA IX, ref ChEMBL and BindingDB, read-out: Ki
[7] = library compounds (IDs A…, B…), values equal log10 of Ki in nM, ref ChEMBL and BindingDB
[8] = experimental pKi towards CA IX, library compounds, ref ChEMB database (ID A), BindingDB (ID B)
[9] = observed Ki towards CA IX, library compounds, ref ChEMB database (ID A), BindingDB (ID B), read-out: Ki
[10] = observed Ki of library compounds (IDs A…, B…), ref ChEMBL and BindingDB, read-out: Ki
[11] = library compounds (IDs A…, B…) of Table S4, ref ChEMBL and BindingDB, read-out: Ki

SMILES: NS(=O)(=O)c1ccc(NCc2cc(Br)ccc2O)cc1 [A0114]
- log10 of Ki in nM (CA IX [1]; [3]): 0.415

SMILES: NS(=O)(=O)c1nnc(NS(=O)(=O)c2ccc(NC(=O)CCC(=O)O)cc2)s1 [A0151]
- log10 of Ki in nM (CA IX [1]; [3]): 0.477

SMILES: NS(=O)(=O)c1ccc(CNC(=O)Cc2ccc(F)cc2)cc1 [A0160]
- log10 of Ki in nM (CA IX [1]; [3]): 0.491

SMILES: NS(=O)(=O)c1ccc(C(=O)NNC(=O)Nc2ccc([N+](=O)[O-])cc2)cc1 [A0170]
- log10 of Ki in nM (CA IX [1]): 0.505

SMILES: Nc1cc(Nc2ccc(S(N)(=O)=O)cc2)nc(N)n1 [A0250]
- log10 of Ki in nM (CA IX [1]; [4]): 0.591

SMILES: NS(=O)(=O)c1ccc(CCNCc2cc(Cl)cc(Cl)c2O)cc1 [A0260]
- log10 of Ki in nM (CA IX [1]; [5]): 0.613

SMILES: Nc1nc(N)c2nc(CNCCc3ccc(S(N)(=O)=O)cc3)cnc2n1 [A0285]
- log10 of Ki in nM (CA IX [1]; [3]): 0.672

SMILES: NS(=O)(=O)c1ccc(NC(=O)c2ccc(/N=C3\C(=O)Nc4ccc(F)cc43)cc2)cc1 [A0310]
- log10 of Ki in nM (CA IX [1]; [4]): 0.699

SMILES: NS(=O)(=O)c1ccc(-n2c(S)nc3cc(F)ccc3c2=O)cc1 [A0315]
- log10 of Ki in nM (CA IX [1]; [5]): 0.708

SMILES: Cc1cccc(Nc2nc(Cl)nc(Nc3ccc(S(N)(=O)=O)cc3)n2)c1 [A0317]
- log10 of Ki in nM (CA IX [1]; [5]): 0.708

SMILES: NS(=O)(=O)c1ccc(CNS(=O)(=O)c2ccc(NC(=O)c3c(F)c(F)cc(F)c3F)cc2)cc1 [A0340]
- log10 of Ki in nM (CA IX [1]; [3]): 0.740

SMILES: O=S1(=O)C=Cc2cc(-c3nnnn3-c3cccc4ccccc34)ccc2O1 [A0400]
- log10 of Ki in nM (CA IX [1]; [3]): 0.813

SMILES: COc1ccc(C2=Nn3c(nnc3-c3ccc(S(N)(=O)=O)cc3)SC2)cc1 [A0402]
- log10 of Ki in nM (CA IX [1]; [3]): 0.813

SMILES: CN(C)c1ccc(/N=N/c2ccc(S(N)(=O)=O)cc2)cc1 [A0408]
- log10 of Ki in nM (CA IX [1]; [3]): 0.820

SMILES: NS(=O)(=O)c1ccc(NC(=S)N[C@@H]2O[C@H](CO)[C@H](O)[C@H](O)[C@H]2O)cc1 [A0430]
- log10 of Ki in nM (CA IX [1]; [3]): 0.845

SMILES: NS(=O)(=O)c1ccc(OCc2ccc(F)cc2)cc1 [A0463]
- log10 of Ki in nM (CA IX [1]): 0.869

SMILES: CC(C)(C)OC(=O)NCCCCOc1ccc(S(N)(=O)=O)cc1 [A0486]
- log10 of Ki in nM (CA IX [1]; [5]): 0.886

SMILES: COc1cc(OC)c(/C=C(\C#N)C(=O)Nc2ccc(S(N)(=O)=O)cc2)c(OC)c1 [A0495]
- log10 of Ki in nM (CA IX [1]; [3]): 0.892

SMILES: Cc1ccc2c(n1)SCc1cnc(Nc3ccc(S(N)(=O)=O)cc3)nc1-2 [A0518]
- log10 of Ki in nM (CA IX [1]; [3]): 0.908

SMILES: C#CCOc1ccc(S(N)(=O)=O)cc1 [A0523]
- log10 of Ki in nM (CA IX [1]; [5]): 0.914

SMILES: CCOC(=O)c1ccc(NC(=O)NNC(=O)c2ccc(S(N)(=O)=O)cc2)cc1 [A0551]
- log10 of Ki in nM (CA IX [1]; [4]): 0.929

SMILES: NS(=O)(=O)c1ccc(CNC(=S)N[C@@H]2O[C@H](CO)[C@@H](O)[C@H](O)[C@H]2O)cc1 [A0577]
- log10 of Ki in nM (CA IX [1]): 0.944

SMILES: O=S1(=O)C=Cc2cc(-n3cc(-c4cccc(F)c4)nn3)ccc2O1 [A0598]
- log10 of Ki in nM (CA IX [1]; [4]): 0.954

SMILES: COC(=O)c1cn(-c2ccc(S(N)(=O)=O)cc2)nc1-c1ccc(F)cc1 [A0626]
- log10 of Ki in nM (CA IX [1]; [3]): 0.973

SMILES: N#C/C(=C\c1ccc2c(c1)OCO2)C(=O)Nc1ccc(S(N)(=O)=O)cc1 [A0636]
- log10 of Ki in nM (CA IX [1]; [3]): 0.978

SMILES: O=S1(=O)C=Cc2cc(-n3nncc3-c3cccc(C(F)(F)F)c3)ccc2O1 [A0646]
- log10 of Ki in nM (CA IX [1]; [4]): 0.982

SMILES: NS(=O)(=O)c1ccc(CCNC(=S)Nc2ccc(C(=O)O)cc2)cc1 [A0666]
- log10 of Ki in nM (CA IX [1]; [5]): 1.000

SMILES: O=C1c2ccccc2S(=O)(=O)N1Cc1cccc([N+](=O)[O-])c1 [A0700]
- log10 of Ki in nM (CA IX [1]; [3]): 1.041

SMILES: CC1(C)O[C@@H]2O[C@H]([C@@H]3COC(C)(C)O3)[C@@H](OS(N)(=O)=O)[C@@H]2O1 [B0417]
- log10 of Ki in nM (CA IX [2]): 1.591
- Ki (CA IX [2]; read-out: Ki): 39 nM

SMILES: Cc1ccc(-c2cnc(C(=O)N3CCCC3)o2)cc1S(N)(=O)=O [B0431]
- Ki (CA IX [2]; observed Ki of library compounds (IDs A..., B...), ref ChEMBL, BindingDB, read-out: Ki): 43 nM

SMILES: CC1C=C(C(C)C)N(Cc2ccc(S(N)(=O)=O)cc2)C(C(C)C)=C1 [B0461]
- Ki (CA IX [2]; [6]): 54 nM
- log10 of Ki in nM (CA IX [2]; [7]): 1.732

SMILES: C[C@]12CC[C@H]3[C@@H]([C@H]1CCC2=O)[C@@H](O)C=C1C[C@@H](OS(N)(=O)=O)CC[C@]13C [B0490]
- Ki (CA IX [2]): 65 nM
- log10 of Ki in nM (CA IX [2]): 1.813

SMILES: CC(=O)OC[C@@H]1O[C@H](NS(=O)(=O)NO)C=C[C@H]1OC(C)=O [B0526]
- log10 of Ki in nM (CA IX [2]): 1.898
- Ki (CA IX [2]; read-out: Ki): 79 nM

SMILES: NS(=O)(=O)c1ccc(CCN2C(c3ccccc3)=CCC=C2c2ccccc2)cc1 [B0533]
- log10 of Ki in nM (CA IX [2]; [8]): 1.908
- Ki (CA IX [2]; [9]): 81 nM

SMILES: CC1(C)O[C@H]2[C@H](CO[C@]3(CNC(=S)Nc4ccc(S(N)(=O)=O)cc4)OC(C)(C)O[C@H]23)O1 [B0536]
- log10 of Ki in nM (CA IX [2]): 1.914
- Ki (CA IX [2]; read-out: Ki): 82 nM

SMILES: NS(=O)(=O)c1ccc(-n2cc(CO[C@H]3O[C@H](CO)[C@H](O[C@H]4O[C@H](CO)[C@@H](O)[C@@H](O)[C@H]4O)[C@@H](O)[C@@H]3O)nn2)cc1 [B0542]
- log10 of Ki in nM (CA IX [2]): 1.924
- Ki (CA IX [2]; read-out: Ki): 84 nM

SMILES: NS(=O)(=O)c1ccc(N[C@H]2SC[C@H](c3ccc(F)cc3F)N2C2CCCCC2)cc1 [B0547]
- log10 of Ki in nM (CA IX [2]; [7]): 1.934
- Ki (CA IX [2]; [10]): 86 nM

SMILES: CC(=O)OC[C@@H]1O[C@@H](SCc2nnn(-c3ccc(S(N)(=O)=O)cc3)c2I)[C@H](OC(C)=O)[C@@H](OC(C)=O)[C@@H]1OC(C)=O [B0581]
- log10 of Ki in nM (CA IX [2]; [8]): 1.978
- Ki (CA IX [2]; [9]): 95 nM

SMILES: NS(=O)(=O)c1ccc(CCNS(=O)(=O)[C@@H]2O[C@@H](C(=O)O)[C@@H](O)[C@@H](O)[C@@H]2O)cc1 [B0584]
- Ki (CA IX [2]; [11]): 96 nM
- log10 of Ki in nM (CA IX [2]; [7]): 1.982

SMILES: CC(=O)OC[C@@H]1O[C@H](SNCCc2ccc(S(N)(=O)=O)cc2)[C@@H](OC(C)=O)[C@H](OC(C)=O)[C@@H]1OC(C)=O [B0585]
- log10 of Ki in nM (CA IX [2]): 1.987
- Ki (CA IX [2]; read-out: Ki): 97 nM

SMILES: CC(=O)OC[C@@H]1O[C@@H](S(=O)(=O)Cc2nnn(-c3ccc(S(N)(=O)=O)cc3)c2I)[C@H](OC(C)=O)[C@@H](OC(C)=O)[C@@H]1OC(C)=O [B0586]
- log10 of Ki in nM (CA IX [2]): 1.987
- Ki (CA IX [2]; read-out: Ki): 97 nM

SMILES: CC1(C)O[C@H]2[C@H](CO[C@]3(CNC(=S)Nc4ccc(S(N)(=O)=O)cc4F)OC(C)(C)O[C@H]23)O1 [B0608]
- log10 of Ki in nM (CA IX [2]): 2.041
- Ki (CA IX [2]; read-out: Ki): 110 nM

SMILES: NS(=O)(=O)c1ccc(-c2cn([C@H]3O[C@H](CO)[C@@H](O)[C@@H](O)[C@H]3O)nn2)cc1 [B0619]
- log10 of Ki in nM (CA IX [2]): 2.079
- Ki (CA IX [2]; read-out: Ki): 120 nM

SMILES: NS(=O)(=O)c1ccc(-c2cn([C@@H]3O[C@@H](CO)[C@H](O)[C@@H]3O)nn2)cc1 [B0623]
- log10 of Ki in nM (CA IX [2]): 2.083
- Ki (CA IX [2]; read-out: Ki): 121 nM

SMILES: CC(=O)OC[C@@H]1O[C@H](O[C@@H]2[C@@H](OC(C)=O)[C@H](OC(C)=O)[C@H](n3cc(COC(=O)c4ccc(S(N)(=O)=O)cc4)nn3)O[C@@H]2COC(C)=O)[C@H](OC(C)=O)[C@H](OC(C)=O)[C@H]1OC(C)=O [B0633]
- log10 of Ki in nM (CA IX [2]): 2.114
- Ki (CA IX [2]; read-out: Ki): 130 nM

SMILES: Cc1cc(=O)oc2cc(O[C@H]3O[C@@H](C)[C@H](O)[C@H](O)[C@H]3O)ccc12 [B0671]
- log10 of Ki in nM (CA IX [2]): 2.303
- Ki (CA IX [2]; read-out: Ki): 201 nM

SMILES: COc1cc2c(cc1OC)[C@@H](c1ccc([N+](=O)[O-])cc1)N(S(N)(=O)=O)CC2 [B0740]
- log10 of Ki in nM (CA IX [2]; [7]): 2.681
- Ki (CA IX [2]; [10]): 480 nM

SMILES: CC1=CC(C)C=C(C)N1CCc1ccccc1-c1ccccc1 [B0751]
- Ki (CA IX [2]; [11]): 710 nM
- log10 of Ki in nM (CA IX [2]; [7]): 2.851

SMILES: COc1ccc(/C=C\C(=O)C[C@H]2O[C@H](COC(C)=O)[C@@H](OC(C)=O)[C@@H](OC(C)=O)[C@@H]2OC(C)=O)cc1OC [B0756]
- Ki (CA IX [2]; [6]): 753 nM
- log10 of Ki in nM (CA IX [2]; [7]): 2.877

SMILES: CC1=CC(C)C=C(C)N1CCc1ccccc1C [B0765]
- log10 of Ki in nM (CA IX [2]; [7]): 2.919
- Ki (CA IX [2]; [10]): 830 nM

SMILES: CC(=O)Nc1ccc(S(=O)(=O)NC[C@H](C)F)cc1 [B0810]
- log10 of Ki in nM (CA IX [2]; [8]): 3.643
- Ki (CA IX [2]; [9]): 4400 nM
